US8987193B2, “Nisin derivatives and the use thereof” (University College Cork—National University of Ireland, Cork, priority 2008, dated 2015)
Ends that are not written are not given here.

Legend:
Staph. aureus DPC5245 = experiment: Deferred antagonism assay; type: cell-based; settings: producing strain; diameter of zone minus 5 mm; average of duplicates; St. aureus DPC5245
Protocol: (§1) Deferred antagonism assays were performed by replicating strains on GM17 or GM17 x-gal agar plates and allowing them to grow overnight before overlaying with either GM17/BHI/TS/MH agar (0.75% w/v agar) seeded with the appropriate indicator strain. Zone size was calculated as the diameter of the zone of clearing minus the diameter of bacterial growth (5 mm) For higher throughput screening of N20PXX, XM21VX, XXK22T and XXX banks deferred antagonism assays were performed by replicating strains using a 96 pin replicator (Boekel) or spotting 5 μl of a fresh overnight culture on GM17 agar plates and allowing them to grow overnight. […] Additional sets of indicators were employed to further assess/reassess the bioactivity of a number of strains. […] For well-diffusion assays molten agar was cooled to 48° C. and seeded with the appropriate indicator strain. The inoculated medium was rapidly transferred into sterile Petri plates in 50 ml volumes, allowed to solidify and dried. Wells (4.6 mm in diameter) were then made in the seeded plates. Purified nisin and mutant nisins were resuspended in 0.005% acetic acid, serially diluted, 50 μl volumes were dispensed into the aforementioned wells and the plates incubated at 37° C. overnight. Bioactivity was expressed as arbitrary units/ml (AU/ml) and calculated as the reciprocal of the highest dilution that gave a definite zone multiplied by the conversion factor (i.e. 20 when 50 μl was used) (Ryan et al., 1996).
(§2) As a consequence of the enhanced activities of K22T and K22S, a more in-depth investigation of this region was carried out. Saturation mutagenesis was undertaken to create a bank of nisin A hinge derivatives containing the vast majority of possible amino acid substitutions for each position. Although pPTPL was used successfully for random mutagenesis, its relatively large size of approx 10.5 kb was considered unsuitable for the complete plasmid PCR amplification approach utilized for saturation mutagenesis. A smaller (approx 6 kb) E. coli-L. lactis shuttle vector pCI372 was considered to be potentially more useful. Its suitability with respect to the in trans expression of nisA was confirmed by the ability of pDFO5 to restore the nisin positive phenotype. Saturation mutagenesis was performed on each codon using pDF05 and oligonucleotides (Table 5) that replace the specific codon with a NNK triplet, potentially encoding all 20 standard amino acids. Following complete plasmid amplification and introduction into the intermediate Top10 host, sequence analysis of a pooled bank of pDF05 derivatives confirmed randomization. Introduction of these variants into L. lactis NZ9800 allowed the expression of mutant nisin A peptides for further analysis. […] 46 residue conversions were isolated. All strains, regardless of bioactivity, were assessed with a view to comprehensively assessing the consequences of each individual hinge alteration.
(§3) Values are an average of duplicate experiments and represent zone size (diameter of zone minus diameter of bacterial growth (i.e. 5 mm) relative to that of the NZ9800 pCI372nisA control. X=Mutants not identified.

[1] = tested on: Staph. aureus ST528 (MRSA); experiment: Deferred antagonism assay; type: cell-based; settings: producing strain, diameter of zone minus diameter of bacterial growth (5 mm), average of duplicates
Protocol: as §1, §2, §3

[2] = tested on: Strep. agalactiae ATCC13813; experiment: Deferred antagonism assay; type: cell-based; settings: producing strain, diameter of zone minus 5 mm, average of duplicates
Protocol: as §1, §2, §3

L. monocytogenes CBC1 = experiment: Deferred antagonism assay; type: cell-based, Listeria monocytogenes; design: key: + = Enhanced bioactivity relative to control; − = Bioactivity equal to or less than control; NA = no activity evident; settings: producing strain; L. mono CBC1
Outline: (§4)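 L. lactis NZ9800 strains expressing nisin A hinge variants were replicated or spotted on GM17 agar, grown overnight, then overlaid with 0.75% w/v agar seeded with indicator. Zone size is the clearing diameter minus 5 mm colony growth.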

L. monocytogenes CBC2 = experiment: Deferred antagonism assay; type: cell-based, Listeria monocytogenes; design: key: + = Enhanced bioactivity relative to control; − = Bioactivity equal to or less than control; NA = no activity evident; settings: producing strain; L. mono CBC2
Outline: as §4

L. monocytogenes CBC3 = experiment: Deferred antagonism assay; type: cell-based, Listeria monocytogenes; design: key: + = Enhanced bioactivity relative to control; − = Bioactivity equal to or less than control; NA = no activity evident; settings: producing strain; L. mono CBC3
Outline: as §4

L. lactis CBC7 = experiment: Deferred antagonism assay; type: cell-based; design: key: + = Enhanced bioactivity relative to control; − = Bioactivity equal to or less than control; NA = no activity evident; settings: producing strain
Outline: as §4

L. lactis CBC8 = experiment: Deferred antagonism assay; type: cell-based; design: key: + = Enhanced bioactivity relative to control; − = Bioactivity equal to or less than control; NA = no activity evident; settings: producing strain
Outline: as §4

S. aureus CBC4 = experiment: Deferred antagonism assay; type: cell-based; design: key: + = Enhanced bioactivity relative to control; − = Bioactivity equal to or less than control; NA = no activity evident; settings: producing strain
Outline: as §4

C. sporogenes CBC5 = experiment: Deferred antagonism assay; type: cell-based, Clostridium sporogenes; design: key: + = Enhanced bioactivity relative to control; − = Bioactivity equal to or less than control; NA = no activity evident; settings: producing strain
L. plantarum CBC6 = experiment: Deferred antagonism assay; type: cell-based, Lactobacillus plantarum; design: key: + = Enhanced bioactivity relative to control; − = Bioactivity equal to or less than control; NA = no activity evident; settings: producing strain
Outline: as §4

indicator strains = experiment: Deferred antagonism assays, various indicator strains (summary); type: cell-based; settings: for Strain(s) against which the derivative (producing strain) displays enhanced bioactivity: relative to nisin A-producing control, value = strains listed
Outline: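 Producer strains were replicated on GM17 or GM17 x-gal agar, grown overnight, then overlaid with GM17, BHI, TS or MH soft agar (0.75% w/v) seeded with the indicator strain. Zone size was taken as the clearing diameter minus the diameter of bacterial growth (5 mm).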

Substance	zone size relative to that of the NZ9800 pCI372nisA control (Staph. aureus DPC5245) [%]	zone size relative to that of the NZ9800 pCI372nisA control [1] [%]	zone size relative to that of the NZ9800 pCI372nisA control [2] [%]	Bioactivity relative to control (L. monocytogenes CBC1)	Bioactivity relative to control (L. monocytogenes CBC2)	Bioactivity relative to control (L. monocytogenes CBC3)	Bioactivity relative to control (L. lactis CBC7)	Bioactivity relative to control (L. lactis CBC8)	Bioactivity relative to control (S. aureus CBC4)	Bioactivity relative to control (C. sporogenes CBC5)	Bioactivity relative to control (L. plantarum CBC6)	bioactivity of the producing strain, in words (indicator strains; in general / against the strains tested)	Strain(s) against which the derivative (producing strain) displays enhanced bioactivity (indicator strains)
NisinA K22L (ITSISLCTPGCKTGALMGCNMLTATCHCSIHVSK; not fully specified; cysteine pairing not given here; also: lantibiotic nisin-A; UniProt P13068 24-57, looked up, variant K22L) [nisin A derivative, hinge substitution K22L]	89	93.5	108	−	−	−	−	+	−	−	−	retention of relatively high levels of bioactivity	L. lactis CBC8
K22H: nisin A derivative, hinge substitution K22H (ITSISLCTPGCKTGALMGCNMHTATCHCSIHVSK; cysteine pairing not given here; also: lantibiotic nisin-A; UniProt P13068 24-57, looked up, variant K22H)	97	97	104	−	−	−	−	−	−	−	−		
NisinA N20T (ITSISLCTPGCKTGALMGCTMKTATCHCSIHVSK; not fully specified; also: lantibiotic nisin: dehydrated residues and thioether rings not placed; UniProt P13068 24-57, looked up, variant N20T) [nisin A derivative, hinge substitution N20T]	90	79		−	−	−	−	−	−	+	−		C. sporogenes CBC5
M21W: nisin A derivative, hinge substitution M21W (ITSISLCTPGCKTGALMGCNWKTATCHCSIHVSK; cysteine pairing not given here; also: lantibiotic nisin-A; UniProt P13068 24-57, looked up, variant M21W)	14	12	0	−	−	−	−	−	−	−	−		
K22F: nisin A derivative, hinge substitution K22F (ITSISLCTPGCKTGALMGCNMFTATCHCSIHVSK; cysteine pairing not given here; also: lantibiotic nisin-A; UniProt P13068 24-57, looked up, variant K22F)	56	29	57	−	−	−	−	−	−	−	−		
M21P: nisin A derivative, hinge substitution M21P (ITSISLCTPGCKTGALMGCNPKTATCHCSIHVSK; cysteine pairing not given here; also: lantibiotic nisin-A; UniProt P13068 24-57, looked up, variant M21P)	32	40	0	−	−	−	−	−	−	−	−		
M21F: nisin A derivative, hinge substitution M21F (ITSISLCTPGCKTGALMGCNFKTATCHCSIHVSK; cysteine pairing not given here; also: lantibiotic nisin-A; UniProt P13068 24-57, looked up, variant M21F)	21.5	20	0	−	−	−	−	−	−	−	−		
